Results reported in patent EP1432683B9 (Recordati Ireland Limited, priority 2001, dated 2003).
Where a name gives a salt, the structure may show the parent alone. Read-outs that look alike come from different tables or passages of the source.

Assays:
[1] = Hygroscopicity by DVS analysis; assay type: physicochemical; settings: 25°C
Procedure: The hygroscopicity of both crystalline Forms (I) and (II) was measured with DVS analysis by means of a water absorption analyzer (SURFACE MEASUREMENT SYSTEM, Marion, Buckinghamshire, UK) according to the following working conditions: […]

[2] = Bioavailability of crystalline Forms (I) and (II) in dogs; assay type: in vivo, Beagle dogs; settings: for AUC0-t / Cmax / concentration in plasma of lercanidipine (S+R): oral 3 mg/kg
Procedure: A study was carried out on six Beagle dogs to evaluate the bioavailability of crystalline Forms (I) and (II).
Blood samples were taken at given times and plasma concentrations of lercanidipine were determined with a stereoselective analytical method HPLC-MS/MS, according to the following working conditions;
Lercanidipine was extracted from dog plasma by means of a liquid-liquid extraction with a mixture of n-hexane and ethyl ether. The dry residue of the organic phase was taken up with a mixture of methanol and water and a liquid-phase chromatographic separation (LC) was carried out; the two enantiomers of lercanidipine were separated on a CHIROBIOTIC V column (Vancomycin) (particle size […], column size 150 x 4.6 mm (ASTEC, NJ, USA)) and were detected with a mass spectrometer (MS/MS) by using an electrospray technique.
The analytical method was validated in a concentration range between 0.1 and 20 ng/ml of plasma for both enantiomers. The method has shown to be specific with an accuracy of 15%. The average concentrations of lercanidipine in the tables represent the sum of both enantiomers.

[3] = Relative bioavailability of Form (I) and Form (II) in man; assay type: in vivo; settings: 10 mg tablet
Procedure: Blood samples were taken at 15 points from time 0 to 24 h post-dosing and plasma concentrations of lercanidipine were determined with a stereoselective analytical method HPLC-MS/MS.

[4] = Solubility in mixtures of water-ethanol at 25°C and 40°C; assay type: physicochemical

COC(=O)C1=C(C)NC(C)=C(C(=O)OC(C)(C)CN(C)CCC(c2ccccc2)c2ccccc2)C1c1cccc([N+](=O)[O-])c1 (single isomer, unassigned) [Form (I), lercanidipine hydrochloride]
mass change ([1]; at 0% RH): -0.3%
mass change ([1]; at 95% RH): +0.15%
AUC0-t ([2]; Dog 1, hydrochloride, 3 mg/kg): 15.41 ng/h/mL
Cmax ([2]; Dog 1, hydrochloride, 3 mg/kg): 8.29 ng/mL
Cmax ([2]; Dog 2 (not included in mean), hydrochloride, 3 mg/kg): 128.87 ng/mL
AUC0-t ([2]; Dog 3, hydrochloride, 3 mg/kg): 27.544 ng/h/mL
Cmax ([2]; Dog 3, hydrochloride, 3 mg/kg): 11.62 ng/mL
AUC0-t ([2]; Dog 4, hydrochloride, 3 mg/kg): 46.57 ng/h/mL
Cmax ([2]; Dog 4, hydrochloride, 3 mg/kg): 27.17 ng/mL
AUC0-t ([2]; Dog 5, hydrochloride, 3 mg/kg): 70.39 ng/h/mL
Cmax ([2]; Dog 5, hydrochloride, 3 mg/kg): 22.58 ng/mL
AUC0-t ([2]; Dog 6, hydrochloride, 3 mg/kg): 28.72 ng/h/mL
Cmax ([2]; Dog 6, hydrochloride, 3 mg/kg): 17.83 ng/mL
Cmax ([2]; Mean (n=5, Dog 2 not included), hydrochloride, 3 mg/kg): 17.50 ng/mL
concentration in plasma of lercanidipine (S+R) ([2]; Time 0 h, Dog 1): 0.00 ng/mL
concentration in plasma of lercanidipine (S+R) ([2]; Time 0 h, Dog 2 (not included in mean)): 0.00 ng/mL
concentration in plasma of lercanidipine (S+R) ([2]; Time 0 h, Dog 3): 0.00 ng/mL
concentration in plasma of lercanidipine (S+R) ([2]; Time 0 h, Dog 4): 0.00 ng/mL
concentration in plasma of lercanidipine (S+R) ([2]; Time 0 h, Dog 5): 0.00 ng/mL
concentration in plasma of lercanidipine (S+R) ([2]; Time 0 h, Dog 6): 0.00 ng/mL
concentration in plasma of lercanidipine (S+R) ([2]; Time 0 h, Mean (Dog 2 not included)): 0.00 ng/mL
concentration in plasma of lercanidipine (S+R) ([2]; Time 0.5 h, Dog 2 (not included in mean), hydrochloride, 3 mg/kg, 30 min): 0.20 ng/mL
concentration in plasma of lercanidipine (S+R) ([2]; Time 0.5 h, Dog 3, hydrochloride, 3 mg/kg): 0.00 ng/mL
concentration in plasma of lercanidipine (S+R) ([2]; Time 0.5 h, Dog 4): 0.00 ng/mL
concentration in plasma of lercanidipine (S+R) ([2]; Time 0.5 h, Dog 5): 0.00 ng/mL
concentration in plasma of lercanidipine (S+R) ([2]; Time 0.5 h, Dog 6): 0.00 ng/mL
concentration in plasma of lercanidipine (S+R) ([2]; Time 0.5 h, Mean (Dog 2 not included), hydrochloride, 3 mg/kg): 0.00 ng/mL
concentration in plasma of lercanidipine (S+R) ([2]; Time 1 h, Dog 2 (not included in mean), hydrochloride, 3 mg/kg, 60 min): 0.29 ng/mL
concentration in plasma of lercanidipine (S+R) ([2]; Time 1 h, Dog 3, hydrochloride, 3 mg/kg): 0.00 ng/mL
concentration in plasma of lercanidipine (S+R) ([2]; Time 1 h, Dog 4, hydrochloride, 3 mg/kg): 0.00 ng/mL
concentration in plasma of lercanidipine (S+R) ([2]; Time 1 h, Dog 5, hydrochloride, 3 mg/kg): 0.00 ng/mL
concentration in plasma of lercanidipine (S+R) ([2]; Time 1 h, Dog 6): 0.00 ng/mL
concentration in plasma of lercanidipine (S+R) ([2]; Time 1 h, Mean (Dog 2 not included), hydrochloride, 3 mg/kg, 60 min): 0.12 ng/mL
concentration in plasma of lercanidipine (S+R) ([2]; Time 1.5 h, Dog 1, hydrochloride, 3 mg/kg, 90 min): 1.83 ng/mL
concentration in plasma of lercanidipine (S+R) ([2]; Time 1.5 h, Dog 2 (not included in mean), hydrochloride, 3 mg/kg, 90 min): 1.06 ng/mL
concentration in plasma of lercanidipine (S+R) ([2]; Time 1.5 h, Dog 3, hydrochloride, 3 mg/kg, 90 min): 0.32 ng/mL
concentration in plasma of lercanidipine (S+R) ([2]; Time 1.5 h, Dog 4, hydrochloride, 3 mg/kg): 0.00 ng/mL
concentration in plasma of lercanidipine (S+R) ([2]; Time 1.5 h, Dog 5, hydrochloride, 3 mg/kg, 90 min): 1.33 ng/mL
concentration in plasma of lercanidipine (S+R) ([2]; Time 1.5 h, Dog 6, hydrochloride, 3 mg/kg): 0.00 ng/mL
concentration in plasma of lercanidipine (S+R) ([2]; Time 1.5 h, Mean (Dog 2 not included), hydrochloride, 3 mg/kg, 90 min): 0.70 ng/mL
concentration in plasma of lercanidipine (S+R) ([2]; Time 2 h, Dog 1, hydrochloride, 3 mg/kg, 120 min): 8.29 ng/mL
concentration in plasma of lercanidipine (S+R) ([2]; Time 2 h, Dog 2 (not included in mean), hydrochloride, 3 mg/kg, 120 min): 8.94 ng/mL
concentration in plasma of lercanidipine (S+R) ([2]; Time 2 h, Dog 3, hydrochloride, 3 mg/kg, 120 min): 0.94 ng/mL
concentration in plasma of lercanidipine (S+R) ([2]; Time 2 h, Dog 4, hydrochloride, 3 mg/kg, 120 min): 0.35 ng/mL
concentration in plasma of lercanidipine (S+R) ([2]; Time 2 h, Dog 5, hydrochloride, 3 mg/kg, 120 min): 17.11 ng/mL
concentration in plasma of lercanidipine (S+R) ([2]; Time 2 h, Dog 6, hydrochloride, 3 mg/kg, 120 min): 0.28 ng/mL
concentration in plasma of lercanidipine (S+R) ([2]; Time 2 h, Mean (Dog 2 not included), hydrochloride, 3 mg/kg, 120 min): 5.39 ng/mL
concentration in plasma of lercanidipine (S+R) ([2]; Time 3 h, Dog 1, hydrochloride, 3 mg/kg, 180 min): 4.44 ng/mL
concentration in plasma of lercanidipine (S+R) ([2]; Time 3 h, Dog 2 (not included in mean), hydrochloride, 3 mg/kg, 180 min): 36.39 ng/mL
concentration in plasma of lercanidipine (S+R) ([2]; Time 3 h, Dog 3, hydrochloride, 3 mg/kg, 180 min): 0.92 ng/mL
concentration in plasma of lercanidipine (S+R) ([2]; Time 3 h, Dog 4, hydrochloride, 3 mg/kg, 180 min): 27.17 ng/mL
concentration in plasma of lercanidipine (S+R) ([2]; Time 3 h, Dog 5, hydrochloride, 3 mg/kg, 180 min): 22.58 ng/mL
concentration in plasma of lercanidipine (S+R) ([2]; Time 3 h, Dog 6, hydrochloride, 3 mg/kg, 180 min): 1.29 ng/mL
concentration in plasma of lercanidipine (S+R) ([2]; Time 3 h, Mean (Dog 2 not included), hydrochloride, 3 mg/kg, 180 min): 11.28 ng/mL
concentration in plasma of lercanidipine (S+R) ([2]; Time 4 h, Dog 1, hydrochloride, 3 mg/kg, 240 min): 1.81 ng/mL
concentration in plasma of lercanidipine (S+R) ([2]; Time 4 h, Dog 2 (not included in mean), hydrochloride, 3 mg/kg, 240 min): 128.87 ng/mL
concentration in plasma of lercanidipine (S+R) ([2]; Time 4 h, Dog 3, hydrochloride, 3 mg/kg, 240 min): 9.42 ng/mL
concentration in plasma of lercanidipine (S+R) ([2]; Time 4 h, Dog 4, hydrochloride, 3 mg/kg, 240 min): 11.07 ng/mL
concentration in plasma of lercanidipine (S+R) ([2]; Time 4 h, Dog 5, hydrochloride, 3 mg/kg, 240 min): 16.39 ng/mL
concentration in plasma of lercanidipine (S+R) ([2]; Time 4 h, Dog 6, hydrochloride, 3 mg/kg, 240 min): 6.26 ng/mL
concentration in plasma of lercanidipine (S+R) ([2]; Time 4 h, Mean (Dog 2 not included), hydrochloride, 3 mg/kg, 240 min): 8.99 ng/mL
concentration in plasma of lercanidipine (S+R) ([2]; Time 6 h, Dog 1, hydrochloride, 3 mg/kg, 360 min): 0.80 ng/mL
concentration in plasma of lercanidipine (S+R) ([2]; Time 6 h, Dog 2 (not included in mean), hydrochloride, 3 mg/kg, 360 min): 26.65 ng/mL
concentration in plasma of lercanidipine (S+R) ([2]; Time 6 h, Dog 3, hydrochloride, 3 mg/kg, 360 min): 11.62 ng/mL
concentration in plasma of lercanidipine (S+R) ([2]; Time 6 h, Dog 4, hydrochloride, 3 mg/kg, 360 min): 2.53 ng/mL
Tmax ([2]; dog, plasma, po, 3 mg/kg, Dog 1, read-out: Tmax): 2 h
Tmax ([2]; dog, plasma, po, 3 mg/kg, Dog 4, read-out: Tmax): 3 h
Tmax ([2]; dog, plasma, po, 3 mg/kg, Dog 5, read-out: Tmax): 3 h
Tmax ([2]; dog, plasma, po, 3 mg/kg, Dog 6, read-out: Tmax): 6 h
Tmax ([2]; dog, plasma, po, 3 mg/kg, Mean (n=5, Dog 2 not included), read-out: Tmax): 4 h
concentration at 0.5 h ([2]; dog, plasma, po, 3 mg/kg, Time 0.5 h, Dog 1, read-out: concentration in plasma of lercanidipine (S+R)): 0.1 ng/mL
concentration at 1 h ([2]; dog, plasma, po, 3 mg/kg, Time 1 h, Dog 1, read-out: concentration in plasma of lercanidipine (S+R)): 0.59 ng/mL
concentration at 6 h ([2]; dog, plasma, po, 3 mg/kg, Time 6 h (last sampling time), Mean (Dog 2 not included), read-out: concentration in plasma of lercanidipine (S+R)): 8.5 ± 6.5 ng/mL
concentration at 6 h ([2]; dog, plasma, po, 3 mg/kg, Time 6 h, Dog 5, read-out: concentration in plasma of lercanidipine (S+R)): 9.73 ng/mL
concentration at 6 h ([2]; dog, plasma, po, 3 mg/kg, Time 6 h, Dog 6, read-out: concentration in plasma of lercanidipine (S+R)): 17.8 ng/mL
tmax compared with Form (II) [3]: shorter than that of Form (II)
AUC(0-t) at 24 h ([3]; human, plasma, po, 10 mg, single dose, geom. least square mean): 8.82 ng·h/mL
Cmax ([3]; human, plasma, po, 10 mg, single dose, geom. least square mean, read-out: Cmax): 3.18 ng/mL
Tmax ([3]; human, plasma, po, 10 mg, single dose, median, read-out: tmax): 1.5 h
solubility compared with Form (II) ([4]; 25°C and 40°C): higher than that of crystalline Form (II)
water concentration at which the maximum solubility is reached ([4]; at both 25°C and 40°C): 20%
